Source: publication PMC10605077, “In Vitro and In Silico Antiviral Activity of Di-Halogenated Compounds Derived from L-Tyrosine against Human Immunodeficiency Virus 1 (HIV-1)” (Current Issues in Molecular Biology, 2023)
Entries after “also recorded” stand apart in the source; their conditions may differ.

How the values were obtained:
MTT cytotoxicity assay = assay type: cell-based; settings: human; TZM-bl cells, MTT, 48 h
Description: (§1) The in vitro cytotoxic effect of the di-halogenated compounds on TZM-bl cells was determined with the MTT (3-(4,5-Dimethylthiazol-2-yl)-2,5-diphenyltetrazolium bromide) assay (Sigma-Aldrich, St. Louis, MO, USA). For this purpose, 1.2 × 10^5 cells/well were seeded in 96-well plates, which were incubated at 37 °C and 5% CO2 for 24 h. DMEM was used as a negative control and serial two-fold dilutions of the compounds were performed at 9.37 to 300 μM in DMEM supplemented with 5% FBS. A total of 100 μL/well of each dilution was added and incubated for 48 h. Subsequently, the cells were washed 2 times with 1X PBS, and 30 μL of MTT solution (2 mg/mL) was added and incubated for 2 h at 37 °C, in a light-protected culture. Then, 100 µL of DMSO was added to dissolve the formazan crystals, placed in shaking for 15 min, and absorbance reading was performed at 570 nm, using the Microplate Spectrophotometer (Thermo Scientific™ Multiskan™ GO, Waltham, MA, USA). Two independent experiments evaluated each experimental condition in quadruplicate (n = 8). The percentage of viability was calculated concerning the absorbance of the controls without a compound (100% viability). The 50% cytotoxic concentration was defined as the concentration of each compound that can reduce cell viability to 50% of the untreated cell control. CC50 was calculated and analyzed with GraphPad Prism version 8.0.1 (GraphPad Software, Inc., San Diego, CA, USA).

TZM-bl cells = assay: MTT cytotoxicity assay; assay type: cell-based
Description: as §1

HIV-1 BaL (R5) = assay: Anti-HIV activity in infected TZM-bl cells (luciferase), pre- and post-infection treatment; assay type: cell-based, Human Immunodeficiency Virus Type 1 (HIV-1)
Description: (§2) TZM-bl cells were plated in a flat-bottom 96-well plate (Corning Inc., Corning, New York, NY, USA) at the concentration of 1.2 × 10^5 cells/well and incubated for 24 h at 37 °C before the addition or not of each compound at non-cytotoxic concentrations (pre-infection treatment). Then, 1 h later the treatment was removed, and the infection was performed by adding 10 ng/mL of HIV-1IIIB p24 (X4) or 2 ng/mL of HIV-1 BaL (R5). After 3 h, the virus was removed and washed, and the compound dilutions were added again (post-infection treatment). Additionally, three wells were left for the negative control (cells without treatment or infection), the positive control of infection (cells infected with the virus without treatment), and the positive control of inhibition (AZT). Antiviral activity was quantified 48 h after treatment by measuring luciferase activity, which is directly proportional to the number of infectious virus particles in the sample [23]. The luciferase activity was quantified via luminescence emitted by the cells using Bright-GloTM Luciferase Assay System (Promega Corp., Madison, WI, USA), following the manufacturer’s instructions. Briefly, 100 μL of the reagent was added to 100 μL of TZM-bl cells and incubated for at least 2 min, protected from light. Relative light units (RLUs) were measured using the multi-mode plate reader (Thermo ScientificTM VarioskanTM LUX). Each experimental condition was performed in triplicate in two independent experiments (n = 6). The percentage inhibition was calculated as follows: 100 − (RLU of treated cells − RLU of uninfected cells/RLU of infection control − RLU of uninfected cells) × 100.

HIV-1IIIB (X4) = assay: as above; assay type: cell-based, Human Immunodeficiency Virus Type 1 (HIV-1); settings: for SI: selectivity index against HIV-1IIIB (CC50 and IC50 of Table 4)
Description: as §2

PBMC = assay: Viability assay of PBMC, flow cytometry with viability dye; assay type: cell-based, Human; settings: PBMCs
Description: (§3) PBMCs were thawed and let in the culture in RPMI with 10% fetal bovine serum (FBS) (Gibco, Grand Island, NY, USA) for 24 h before each experiment. Cells were stimulated for 48 h with 8 μg/mL of Phytohemagglutinin-PHA (Sigma-Aldrich, St. Louis, MO, USA) and 50 UI/mL of IL-2 (Peprotech, Rocky Hill, CT, USA). In the presence of various concentrations of di-halogenated compounds derived from L-Tyrosine, 2 × 10^5 cells per well were treated and resuspended in 200 µL of fresh medium with 20 UI/mL of IL-2 and incubated in 96-well culture plates for 7 days. After 7 days post-treatment, cell viability was determined using flow cytometry. Briefly, cells were stained with fixable viability dye eFluor 506 (eBioscience, Leicestershire, UK) as detailed in the manufacturer’s protocol for 30 min in the dark. Later, cells were washed and resuspended in PBS, and the percentage of viable cells was measured instead in the LS Fortessa cytometer (BD Biosciences, Franklin Lakes, NJ, USA). Data were analyzed using FlowJo version 10.5.3 (FlowJo, LLC, Ashland, OR, USA).

[1] = system: HIV-GFP-VSV-G reporter virus; assay: microbe, parasite or virus in culture; assay type: cell-based, HIV-1
HIV-1 BaL [2] = assay: Anti-HIV activity in PBMC, intracellular p24 by flow cytometry; assay type: cell-based
Description: In the presence of various concentrations of the most bioactive compounds, 1×10^6 PBMCs previously stimulated with 8 μg/mL of PHA and 50UI/mL of IL-2 were treated for 1 h. […] After spinoculation, cells were washed twice with PBS 1x to remove free virions, and then, fresh medium supplemented with 20 UI/mL of IL-2, with or without the di-halogenated compounds derived from L-Tyrosine dilutions, was added. Cells were plated in 96-well culture plates and incubated for 7 days. […] In addition, antiviral activity was also assessed by measuring intracellular p24 in harvested cells. Briefly, cells were stained with fixable viability dye eFluor 506 (eBioscience, Leicestershire, UK), CD3 (UCHT1; Thermo Scientific, Wilmington, DE, USA), CD4 (RPA-T4; BD Biosciences, San Jose, CA, USA), and p24 PE (KC57; Beckman Coulter, Pasadena, CA, USA), as detailed in the manufacturer’s protocol. Later, cells were washed and resuspended in PBS, and the lecture was measured instead in the LS Fortessa cytometer (BD Biosciences, Franklin Lakes, NJ, USA). Data were analyzed using FlowJo version 10.5.3 (FlowJo, LLC, Ashland, OR, USA).

HIV-1 BaL [3] = assay: Anti-HIV activity in PBMC, p24 ELISA of supernatant; assay type: cell-based; settings: Human immunodeficiency virus 1, BAL, PBMC, AZT (10 µM); read-out: inhibition of HIV-1 BaL in PBMC, extracellular p24 ELISA
[4] = Viability assay of PBMC, flow cytometry with viability dye; assay type: cell-based, Human; settings: human, PBMC stimulated with PHA and IL-2; all concentrations tested (18.75 μM up to 150 μM), 7 days; read-out: viability level on PBMCs
Description: as §3

[5] = Human immunodeficiency virus 1, BAL, TZM-bl cells, read-out: Percentage inhibition of HIV-1 BaL replication
[6] = Human immunodeficiency virus 1, TZM-bl, TZM-bl cells, read-out: Percentage inhibition of HIV-1IIIB (X4 strain) replication
[7] = Human immunodeficiency virus 1, TZM-bl, read-out: percentage inhibition of HIV-GFP-VSV-G replication

For `C[N+](C)(C)CCc1cc(Br)c(O)c(Br)c1` [YDB-3M], the CC50 at 48 h (MTT cytotoxicity assay) was about 101 µM, the cytotoxicity level (TZM-bl cells; 150 μM, 48 h) was “higher level of cytotoxicity” and the “anti-HIV activity against R5 strain in words” value (HIV-1 BaL (R5); HIV-1 BaL, TZM-bl cells) was “had no activity; also recorded: did not show significant anti-HIV activity”. For the same molecule, the inhibition at 18 µM (HIV-1 BaL (R5); [5]) was 7.2%, the inhibition at 37 µM (HIV-1 BaL (R5); [5]) was -10.2% and the inhibition at 18 µM (HIV-1IIIB (X4); [6]) was 39.2%. For the same molecule, the inhibition at 37 µM (HIV-1IIIB (X4); [6]) was 1.8%, the inhibition at 75 µM (HIV-1IIIB (X4); [6]) was -19.4% and the SI (HIV-1IIIB (X4)) was about 32.65.

For `Cc1cn([C@H]2C[C@H](N=[N+]=[N-])[C@@H](CO)O2)c(=O)[nH]c1=O` [AZT, Zidovudine, reference compound], the toxicity in words (TZM-bl cells) was “Neither the viral inhibition control (AZT) nor the solvent (DMSO) was toxic”, the toxicity in words (PBMC) was “Neither the viral inhibition control (AZT) nor the solvent (DMSO) proved toxic” and the inhibition at 10 µM (HIV-1 BaL (R5); Human immunodeficiency virus 1, BAL, TZM-bl, read-out: inhibition of viral infection (HIV-1 BaL)) was over 90%. It also gave an inhibition at 10 µM (HIV-1IIIB (X4); Human immunodeficiency virus 1, TZM-bl, read-out: inhibition of virus infections (HIV-1IIIB)) of over 90%, an inhibition at 10 µM [1, 7] of 93.2% and an inhibition at 10 µM (HIV-1 BaL [2]; Human immunodeficiency virus 1, BAL, PBMC, AZT (10 µM), positive control, read-out: inhibition of HIV-1 BaL replication in PBMC, flow cytometry (intracellular p24)) of 99.4%. For the same molecule, the inhibition at 10 µM (HIV-1 BaL [3]) was over 90%.

`COc1c(Br)cc(C[C@@H](C(=O)O)N(C)C)cc1Br` [TODB-2M] gave a CC50 at 48 h (MTT cytotoxicity assay) of 165 µM, a viability at 7 days [4] of over 90% and an IC50 (HIV-1 BaL (R5); Human immunodeficiency virus 1, BAL, TZM-bl, 48 h, HIV-1 BaL (R5), TZM-bl cells, luciferase) of 114 µM. For the same molecule, the inhibition at 18 µM (HIV-1 BaL (R5); [5]) was 36.3%, the inhibition at 37 µM (HIV-1 BaL (R5); [5]) was 34.1% and the inhibition at 75 µM (HIV-1 BaL (R5); Human immunodeficiency virus 1, BAL, 75 µM, TZM-bl cells, read-out: Percentage inhibition of HIV-1 BaL replication) was 37.7%. It also gave an inhibition at 150 µM (HIV-1 BaL (R5); Human immunodeficiency virus 1, BAL, 150 µM, TZM-bl cells, read-out: Percentage inhibition of HIV-1 BaL replication) of 45.8%, an SI (HIV-1 BaL (R5); selectivity index against HIV-1 BaL (CC50 and IC50 of Table 3)) of 1.45 and an inhibition at 18 µM (HIV-1IIIB (X4); [6]) of 22.2%. It also gave an inhibition at 37 µM (HIV-1IIIB (X4); [6]) of -4%, an inhibition at 75 µM (HIV-1IIIB (X4); [6]) of 9.9% and an inhibition at 150 µM (HIV-1IIIB (X4); Human immunodeficiency virus 1, TZM-bl, 150 µM, TZM-bl cells, read-out: Percentage inhibition of HIV-1IIIB (X4 strain) replication) of 95.9%. The IC50 (HIV-1IIIB (X4); Human immunodeficiency virus 1, HIV-1IIIB (X4), TZM-bl cells, luciferase, 48 h) was about 82.7 µM, the SI (HIV-1IIIB (X4)) was about 1.99 and the SI [1] was 1.16. It also gave an IC50 ([1]; Human immunodeficiency virus 1, TZM-bl, 48 h) of 142 µM, an inhibition at 150 µM [1, 7] of 44.2% and an inhibition at 75 µM (HIV-1 BaL [2]; Human immunodeficiency virus 1, BAL, PBMC, 168 h, 75 μM, 7 days, read-out: inhibition of HIV-1 BaL replication in PBMC, flow cytometry (intracellular p24)) of 56.5%. The inhibition at 150 µM (HIV-1 BaL [2]; Human immunodeficiency virus 1, BAL, PBMC, 168 h, 150 µM, 7 days, read-out: inhibition of HIV-1 BaL replication in PBMC, flow cytometry (intracellular p24)) was over 60% and the “inhibition of HIV-1 BaL replication in PBMC, flow cytometry (intracellular p24)” value (HIV-1 BaL [2]; all concentrations, 7 days) was “over 50%”.
